Measured values reported in patent US7119113B2, “Oxazoles as mGluR1 enhancers” (Hoffmann-La Roche Inc., priority 2002, dated 2006).

What was measured:
rat mGlu 1a receptor = target: T1, rat mGlu 1a receptor (Rattus norvegicus, UniProt P23385); test: [Ca2+]i measurement (FLIPR) on mGlu 1a transfected EBNA cells (headed "Binding Assay"); type: cell-based; settings: rat mGlu 1a transiently transfected EBNA cells, Fluo-3 AM, activation (agonist) curves
T1 construct: expressed in transfected cells; host or cells: EBNA cells (transient transfection)
Experimental: The compounds of the present invention are group I mGlu receptor agonists. The compounds show activities, as measured in the below binding assay, of 0.2 μM or less.
cDNA encoding rat mGlu 1a receptor obtained from Prof. S. Nakanishi (Kyoto, Japan) was transiently transfected into EBNA cells using a procedure described by Schlaeger et al, New Dev. New Appl. Anim. Cell Techn., Proc. ESACT Meet., 15, (1998), 105–112 and 117–120. [Ca^2+]i measurements were performed on mGlu 1a transfected EBNA cells after incubation of the cells with Fluo-3 AM (0.5 μM final concentration) for 1 hour at 37° C. followed by 4 washes with assay buffer (DMEM supplemented with Hank's salt and 20 mM HEPES. [Ca^2+]i measurements were done using a fluorometric imaging plate reader (FLIPR, Molecular Devices Corporation, La Jolla, Calif., USA). When compounds were evaluated as antagonists they were tested against 10 μM glutamate as agonist.
The activation (agonists) curves were fitted with a four parameter logistic equation giving EC50, and Hill coefficient using the iterative non linear curve fitting software Origin (Microcal Software Inc., Northampton, Mass., USA).
In the table below are shown specific EC50 values of compounds of formula I: […]

[1] = Microsome incubation, rat liver microsomes (metabolic stability); type: in vitro ADME; settings: for MAB (rat): maximal achievable bioavailability = 1−E (hepatic extraction ratio), extrapolated from rat microsomal clearance; for microsomal CLint at 10 μM: pH 7.4, rat liver microsomes 1.0 mg prot/mL, test compound 10 μM, 37° C., NADPH regenerating system, calculated from in vitro half-life, read-out: Intrinsic clearance (rat)
Experimental: (§1) The compounds of formula I of the present invention are further characterized by high metabolic stability. This parameter is a prerequisite for good bioavailability, which is necessary to obtain medicaments with acceptable in-vivo activity. The metabolic stability has been tested by the following method:
(§2) Incubation mixtures consisted of liver microsomes (rat 1.0 mg prot/mL or human 2.0 mg prot/mL), test compound 10 μM, MgCl2 (3.3 mM), and an NADPH regenerating system consisting of glucose-6-phosphate dehydrogenase, NADPH and glucose-6-phosphate (equivalent to 1 mM NADPH) in a total volume of 1.0 mL of potassium phosphate buffer 100 mM pH 7.4. Reactions were initiated by addition of the NADPH regenerating system at 37° C. At the time of 1, 5, 9, 13, 17, 21, 25, and 29 min a 5 μL aliquot was directly analysed on a HPLC-MS/MS system consisting of a HP 1100 quaternary pump with degasser and a PE-Sciex API-2000 MS/MS spectrometer. The analytical column was a Waters Symmetry Shield RP8 (2.1*50 mm with a […] particle size). A polarity non linear gradient from phase A (MeOH/Ac. Form.1% 20/80) to phase B (MeOH) was applied for a total run time of 2 minutes at a flow rate of 0.25 mL/min. The PE-Sciex API-2000 MS/MS spectrometer was used for detection of the parent compound. In vivo metabolic clearance was predicted according to published procedures [Houston, Biochem. Pharmacol. 47:1469–1479 (1994)]. In brief, the intrinsic clearance (Clearance, see table below) is calculated from the measured in vitro half-life taking into account incubation volume and microsomal protein used for the in vitro incubation. The intrinsic clearance is expressed in terms of μl/min/mg microsomal protein. For in vivo extrapolations, the hepatic extraction ratio (E) was calculated. Here it is reported the % MAB value which is equal to 1−E. The MAB (maximal achievable bioavailability) values express the maximal bioavailability that one can achieve with the given clearance values.

[2] = Microsome incubation, human liver microsomes (metabolic stability); type: in vitro ADME; settings: for MAB (human): maximal achievable bioavailability = 1−E (hepatic extraction ratio), extrapolated from human microsomal clearance; for microsomal CLint at 10 μM: pH 7.4, human liver microsomes 2.0 mg prot/mL, test compound 10 μM, 37° C., NADPH regenerating system, calculated from in vitro half-life, read-out: Intrinsic clearance (human)
Experimental: as §1, §2

T1 sequence (P23385 19-1199): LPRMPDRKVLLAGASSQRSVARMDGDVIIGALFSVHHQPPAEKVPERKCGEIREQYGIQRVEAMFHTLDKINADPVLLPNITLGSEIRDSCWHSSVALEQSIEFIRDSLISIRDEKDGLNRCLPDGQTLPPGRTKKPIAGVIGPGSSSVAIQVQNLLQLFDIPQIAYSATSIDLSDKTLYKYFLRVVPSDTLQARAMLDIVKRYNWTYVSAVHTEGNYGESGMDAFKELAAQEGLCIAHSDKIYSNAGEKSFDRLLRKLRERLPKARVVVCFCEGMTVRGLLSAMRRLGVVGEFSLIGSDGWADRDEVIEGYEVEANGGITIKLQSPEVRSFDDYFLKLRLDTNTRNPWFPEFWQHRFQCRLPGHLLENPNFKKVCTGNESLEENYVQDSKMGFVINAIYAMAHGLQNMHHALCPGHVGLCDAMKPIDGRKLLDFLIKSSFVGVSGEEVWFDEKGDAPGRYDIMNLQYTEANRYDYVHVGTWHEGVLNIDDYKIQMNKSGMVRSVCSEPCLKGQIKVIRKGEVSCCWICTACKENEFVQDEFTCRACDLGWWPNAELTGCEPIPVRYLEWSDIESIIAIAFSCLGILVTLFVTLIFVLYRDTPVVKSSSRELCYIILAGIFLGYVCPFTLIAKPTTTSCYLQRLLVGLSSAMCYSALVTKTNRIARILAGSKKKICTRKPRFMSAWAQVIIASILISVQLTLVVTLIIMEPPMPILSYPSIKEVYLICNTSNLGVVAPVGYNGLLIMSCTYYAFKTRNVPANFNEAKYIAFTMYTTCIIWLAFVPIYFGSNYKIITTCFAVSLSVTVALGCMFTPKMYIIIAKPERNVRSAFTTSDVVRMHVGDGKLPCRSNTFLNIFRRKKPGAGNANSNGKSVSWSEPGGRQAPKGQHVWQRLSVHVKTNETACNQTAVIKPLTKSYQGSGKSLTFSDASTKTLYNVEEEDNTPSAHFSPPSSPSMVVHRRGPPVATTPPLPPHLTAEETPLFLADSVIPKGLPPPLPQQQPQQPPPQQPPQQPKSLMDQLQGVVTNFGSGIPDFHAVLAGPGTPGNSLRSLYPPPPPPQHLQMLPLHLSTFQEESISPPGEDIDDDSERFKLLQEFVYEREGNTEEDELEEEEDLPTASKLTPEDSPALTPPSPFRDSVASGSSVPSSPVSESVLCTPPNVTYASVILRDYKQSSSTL

SMILES	EC50 (rat mGlu 1a receptor) [nM]	MAB (rat) [1] [%]	microsomal CLint at 10 μM [1] [µL/min/mg]	MAB (human) [2] [%]	microsomal CLint at 10 μM [2] [µL/min/mg]	melting point [°C]
O=C(Nc1nc(C(F)(F)F)co1)C1c2ccccc2Oc2ccc(F)cc21 (racemic) [Example 3, (RS)-2-Fluoro-9H-xanthene-9-carboxylic Acid (4-trifluoromethyl-oxazol-2-yl)-amide]	55	32	61.4	61	9.9	241
O=C(Nc1ncc(C(F)(F)F)o1)C1c2ccccc2Oc2ccc(F)cc21 (racemic) [Example 4, (RS)-2-Fluoro-9H-xanthene-9-carboxylic Acid (5-trifluoromethyl-oxazol-2-yl)-amide]	20	43	40.2	45	18.8	217
O=C(Nc1nc(C(F)(F)F)co1)C1c2ccccc2Oc2cc(F)ccc21 (racemic) [Example 5, (RS)-3-Fluoro-9H-xanthene-9-carboxylic Acid (4-trifluoromethyl-oxazol-2-yl)-amide]	40	46	34.3	78	4.3	221
O=C(Nc1ncc(C(F)(F)F)o1)C1c2ccccc2Oc2cc(F)ccc21 (racemic) [Example 6, (RS)-3-Fluoro-9H-xanthene-9-carboxylic Acid (5-trifluoromethyl-oxazol-2-yl)-amide]	–	52	27.8	63	9.2	250
O=C(Nc1nc(C(F)(F)F)co1)C1c2ccccc2Oc2c(F)cccc21 (racemic) [Example 7, (RS)-4-Fluoro-9H-xanthene-9-carboxylic Acid (4-trifluoromethyl-oxazol-2-yl)-amide]	16	48	32.8	67	7.9	233
O=C(Nc1ncc(C(F)(F)F)o1)C1c2ccccc2Oc2c(F)cccc21 (racemic) [Example 8, (RS)-4-Fluoro-9H-xanthene-9-carboxylic Acid (5-trifluoromethyl-oxazol-2-yl)-amide]	21	49	31.8	45	19.2	228
O=C(Nc1nc(C(F)(F)F)co1)C1c2ccccc2Oc2ccc(Cl)cc21 (racemic) [Example 13, (RS)-2-Chloro-9H-xanthene-9-carboxylic Acid (4-trifluoromethyl-oxazol-2-yl)-amide]	15	–	–	–	–	235
O=C(Nc1nc(C(F)(F)F)co1)C1c2ccccc2Oc2c(Cl)cccc21 (racemic) [Example 14, (RS)-4-Chloro-9H-xanthene-9-carboxylic Acid (4-trifluoromethyl-oxazol-2-yl)-amide]	93	–	–	–	–	212
O=C(Nc1nc(C(F)(F)F)co1)C1c2ccccc2Oc2ccccc21 [Example 1, 9H-Xanthene-9-carboxylic acid (4-trifluoromethyl-oxazol-2-yl)-amide]	56	25	108	68	8	–
O=C(Nc1ncc(C(F)(F)F)o1)C1c2ccccc2Oc2ccccc21 [Example 2, 9H-Xanthene-9-carboxylic Acid (5-trifluoromethyl-oxazol-2-yl)-amide]	38	37	50	68	14	218
O=C(Nc1nc(C(F)(F)F)co1)C1c2cc(F)ccc2Oc2ccc(F)cc21 [Example 9, 2,7-Difluoro-9H-xanthene-9-carboxylic Acid (4-trifluoromethyl-oxazol-2-yl)-amide]	44	77	8.9	85	2.7	259
O=C(Nc1ncc(C(F)(F)F)o1)C1c2cc(F)ccc2Oc2ccc(F)cc21 [Example 10, 2,7-Difluoro-9H-xanthene-9-carboxylic Acid (5-trifluoromethyl-oxazol-2-yl)-amide]	124	54	26.1	73	5.6	232
O=C(Nc1nc(C(F)(F)F)co1)C1c2ccc(F)cc2Oc2cc(F)ccc21 [Example 11, 3,6-Difluoro-9H-xanthene-9-carboxylic Acid (4-trifluoromethyl-oxazol-2-yl)-amide]	3	63	17.6	59	11.1	265
O=C(Nc1ncc(C(F)(F)F)o1)C1c2ccc(F)cc2Oc2cc(F)ccc21 [Example 12, 3,6-Difluoro-9H-xanthene-9-carboxylic Acid (5-trifluoromethyl-oxazol-2-yl)-amide]	25	72	11.6	63	9.1	249
